Data reported in PubChem BioAssay (NCI).
Where “and” joins values, the source holds several entries; their conditions need not be identical. Equal entries are not always repeated.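 Assay format: 96-well plates, 48-hour exposure. At the GI50, growth is halved. TGI is the concentration that stops growth completely.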

Columns and labels:
Assay in all cases: growth of human tumour cells (NCI), 48 h
[1] = test system: 786-0 renal
[2] = test system: A498 renal
[3] = test system: A549 NSCLC
[4] = test system: ACHN renal
[5] = test system: BT-549 breast
[6] = test system: CAKI-1 renal
[7] = test system: COLO 205 colon
[8] = test system: DU-145 prostate
[9] = test system: EKVX NSCLC
[10] = test system: HCC-2998 colon
[11] = test system: HCT-116 colon
[12] = test system: HCT-15 colon
[13] = test system: HL-60(TB) leukemia
[14] = test system: HOP-62 NSCLC
[15] = test system: HOP-92 NSCLC
[16] = test system: HS 578T breast
[17] = test system: HT29 colon
[18] = test system: IGROV1 ovarian
[19] = test system: K-562 leukemia
[20] = test system: KM12 colon
[21] = test system: LOX IMVI melanoma
[22] = test system: M14 melanoma
[23] = test system: MALME-3M melanoma
[24] = test system: MCF7 breast
[25] = test system: MDA-MB-231 breast
[26] = test system: MDA-MB-435
[27] = test system: MOLT-4 leukemia
[28] = test system: NCI-H226 lung
[29] = test system: NCI-H23 lung
[30] = test system: NCI-H460 lung
[31] = test system: NCI-H522 lung
[32] = test system: NCI/ADR-RES ovarian
[33] = test system: OVCAR-3 ovarian
[34] = test system: OVCAR-4 ovarian
[35] = test system: OVCAR-5 ovarian
[36] = test system: OVCAR-8 ovarian
[37] = test system: RPMI-8226 leukemia
[38] = test system: RXF 393 renal
[39] = test system: SF-268 CNS
[40] = test system: SF-295 CNS
[41] = test system: SF-539 CNS
[42] = test system: SK-MEL-2 melanoma
[43] = test system: SK-MEL-28 melanoma
[44] = test system: SK-MEL-5 melanoma
[45] = test system: SK-OV-3 ovarian
[46] = test system: SN12C renal
[47] = test system: SNB-19 CNS
[48] = test system: SNB-75 CNS
[49] = test system: SW-620 colon
[50] = test system: T-47D breast
[51] = test system: TK-10 renal
[52] = test system: U251 CNS
[53] = test system: UACC-257 melanoma
[54] = test system: UACC-62 melanoma
[55] = test system: UO-31 renal
[56] = test system: CCRF-CEM leukemia
[57] = test system: PC-3 prostate
[58] = test system: SR leukemia

Which results are given for NC(N)=NC(N)=NCc1ccco1?
GI50 [1]: > 1250 µM; TGI [1]: > 1250 µM; GI50 [2]: 190 µM and > 1250 µM; TGI [2]: > 1250 µM; GI50 [3]: 340 µM and 325 µM; TGI [3]: > 1250 µM; GI50 [4]: > 1250 µM; TGI [4]: > 1250 µM; GI50 [5]: 336 µM and 974 µM; TGI [5]: > 1250 µM; GI50 [6]: 758 µM; TGI [6]: > 1250 µM; GI50 [7]: > 1250 µM; TGI [7]: > 1250 µM; GI50 [8]: > 1250 µM; TGI [8]: > 1250 µM; GI50 [9]: 117 µM and 31.7 µM; TGI [9]: > 1250 µM; GI50 [10]: > 1250 µM; TGI [10]: > 1250 µM; GI50 [11]: 508 µM and 492 µM; TGI [11]: > 1250 µM; GI50 [12]: > 1250 µM; TGI [12]: > 1250 µM; GI50 [13]: 390 µM; TGI [13]: > 1250 µM; GI50 [14]: 780 µM; TGI [14]: > 1250 µM; GI50 [15]: 116 µM; GI50 [16]: > 1250 µM; TGI [16]: > 1250 µM; GI50 [17]: > 1250 µM; TGI [17]: > 1250 µM; GI50 [18]: 854 µM; TGI [18]: > 1250 µM; GI50 [19]: 264 µM; TGI [19]: > 1250 µM; GI50 [20]: > 1250 µM; TGI [20]: > 1250 µM; GI50 [21]: 581 µM; TGI [21]: > 1250 µM; GI50 [22]: > 1250 µM; TGI [22]: > 1250 µM; GI50 [23]: 741 µM; TGI [23]: > 1250 µM; GI50 [24]: 600 µM; TGI [24]: > 1250 µM; GI50 [25]: > 1250 µM; TGI [25]: > 1250 µM; GI50 [26]: > 1250 µM; TGI [26]: > 1250 µM; GI50 [27]: > 1250 µM; TGI [27]: > 1250 µM; GI50 [28]: > 1250 µM; TGI [28]: > 1250 µM; GI50 [29]: 869 µM and 661 µM; TGI [29]: > 1250 µM; GI50 [30]: 866 µM and 766 µM; TGI [30]: > 1250 µM; GI50 [31]: > 1250 µM; TGI [31]: > 1250 µM; GI50 [32]: > 1250 µM; TGI [32]: > 1250 µM; GI50 [33]: 847 µM; TGI [33]: > 1250 µM; GI50 [34]: 316 µM; TGI [34]: > 1250 µM; GI50 [35]: > 1250 µM; TGI [35]: > 1250 µM; GI50 [36]: 896 µM; TGI [36]: > 1250 µM; GI50 [37]: 818 µM; GI50 [38]: > 1250 µM; TGI [38]: > 1250 µM; GI50 [39]: > 1250 µM; TGI [39]: > 1250 µM; GI50 [40]: 321 µM; TGI [40]: > 1250 µM; GI50 [41]: > 1250 µM; TGI [41]: > 1250 µM; GI50 [42]: > 1250 µM; TGI [42]: > 1250 µM; GI50 [43]: > 1250 µM; TGI [43]: > 1250 µM; GI50 [44]: 363 µM and 119 µM; TGI [44]: > 1250 µM; GI50 [45]: > 1250 µM; TGI [45]: > 1250 µM; GI50 [46]: > 1250 µM; TGI [46]: > 1250 µM; GI50 [47]: > 1250 µM; TGI [47]: > 1250 µM; GI50 [48]: > 1250 µM; TGI [48]: > 1250 µM; GI50 [49]: > 1250 µM; TGI [49]: > 1250 µM; GI50 [50]: > 1250 µM; TGI [50]: > 1250 µM; GI50 [51]: > 1250 µM; TGI [51]: > 1250 µM; GI50 [52]: 516 µM; TGI [52]: > 1250 µM; GI50 [53]: 843 µM and 565 µM; TGI [53]: > 1250 µM; GI50 [54]: 748 µM; TGI [54]: > 1250 µM; GI50 [55]: > 1250 µM; TGI [55]: > 1250 µM

What does the source list for CC1CC2(C)CC(=O)C1C1C(=O)N(CCN3CCOCC3)C(=O)C12 (stereo unspecified)?
GI50 [1]: > 100 µM; TGI [1]: > 100 µM; GI50 [2]: > 100 µM; TGI [2]: > 100 µM; GI50 [3]: > 100 µM; TGI [3]: > 100 µM; GI50 [4]: > 100 µM; TGI [4]: > 100 µM; GI50 [5]: > 100 µM; TGI [5]: > 100 µM; GI50 [6]: > 100 µM; TGI [6]: > 100 µM; GI50 [56]: > 100 µM; TGI [56]: > 100 µM; GI50 [7]: > 100 µM; TGI [7]: > 100 µM; GI50 [8]: > 100 µM; TGI [8]: > 100 µM; GI50 [9]: > 100 µM; TGI [9]: > 100 µM; GI50 [10]: > 100 µM; TGI [10]: > 100 µM; GI50 [11]: > 100 µM; TGI [11]: > 100 µM; GI50 [12]: > 100 µM; TGI [12]: > 100 µM; GI50 [13]: > 100 µM; TGI [13]: > 100 µM; GI50 [14]: > 100 µM; TGI [14]: > 100 µM; GI50 [15]: > 100 µM; TGI [15]: > 100 µM; GI50 [16]: > 100 µM; TGI [16]: > 100 µM; GI50 [17]: > 100 µM; TGI [17]: > 100 µM; GI50 [18]: > 100 µM; TGI [18]: > 100 µM; GI50 [19]: > 100 µM; TGI [19]: > 100 µM; GI50 [20]: > 100 µM; TGI [20]: > 100 µM; GI50 [21]: > 100 µM; TGI [21]: > 100 µM; GI50 [22]: > 100 µM; TGI [22]: > 100 µM; GI50 [23]: > 100 µM; TGI [23]: > 100 µM; GI50 [25]: > 100 µM; TGI [25]: > 100 µM; GI50 [26]: > 100 µM; TGI [26]: > 100 µM; GI50 [27]: > 100 µM; TGI [27]: > 100 µM; GI50 [28]: > 100 µM; TGI [28]: > 100 µM; GI50 [29]: > 100 µM; TGI [29]: > 100 µM; GI50 [31]: > 100 µM; TGI [31]: > 100 µM; GI50 [32]: > 100 µM; TGI [32]: > 100 µM; GI50 [34]: > 100 µM; TGI [34]: > 100 µM; GI50 [35]: > 100 µM; TGI [35]: > 100 µM; GI50 [36]: > 100 µM; TGI [36]: > 100 µM; GI50 [57]: > 100 µM; TGI [57]: > 100 µM; GI50 [38]: > 100 µM; TGI [38]: > 100 µM; GI50 [39]: > 100 µM; TGI [39]: > 100 µM; GI50 [40]: > 100 µM; TGI [40]: > 100 µM; GI50 [41]: > 100 µM; TGI [41]: > 100 µM; GI50 [42]: > 100 µM; TGI [42]: > 100 µM; GI50 [43]: > 100 µM; TGI [43]: > 100 µM; GI50 [44]: > 100 µM; TGI [44]: > 100 µM; GI50 [45]: > 100 µM; TGI [45]: > 100 µM; GI50 [46]: > 100 µM; TGI [46]: > 100 µM; GI50 [47]: > 100 µM; TGI [47]: > 100 µM; GI50 [48]: > 100 µM; TGI [48]: > 100 µM; GI50 [58]: > 100 µM; TGI [58]: > 100 µM; GI50 [49]: > 100 µM; TGI [49]: > 100 µM; GI50 [50]: > 100 µM; TGI [50]: > 100 µM; GI50 [51]: > 100 µM; TGI [51]: > 100 µM; GI50 [52]: > 100 µM; TGI [52]: > 100 µM; GI50 [53]: > 100 µM; TGI [53]: > 100 µM; GI50 [54]: > 100 µM; TGI [54]: > 100 µM; GI50 [55]: > 100 µM; TGI [55]: > 100 µM
